Measured values reported in PMC7942396, “Drug Repurposing Screen for Compounds Inhibiting the Cytopathic Effect of SARS-CoV-2” (Frontiers in Pharmacology, 2021).
Like-named read-outs stand apart in the source and are kept apart here.

Tests used:
[1] = test system: Vero E6 cells
[2] = test system: SARS-CoV-2 (USA_WA1/2020); experiment: microbe, parasite or virus in culture; assay type: cell-based; details: for EC50: read-out: CPE EC50
[3] = cytotoxicity counter-assay, Vero E6 cells without virus
[4] = read-out: Cytotox CC50, cytotoxicity counter-assay, Vero E6 cells without virus
[5] = SARS-CoV-2 CPE assay, Vero E6 cells, confirmed anti-SARS-CoV-2 compounds
[6] = SARS-CoV-2 CPE assay, Vero E6 cells, efficacy
[7] = Vero E6 cells without virus, 72 h
[8] = […], DMSO 0%, no-virus control 100%, hit confirmation
[9] = SARS-CoV-2 CPE assay, Vero E6 cells

## C/C=C(\C)C(=O)OC1C(C)C2(O)C3C=C(C)C(=O)C3CC(CO)=CC2C2C(C)(C)C12OC(C)=O (stereo not drawn) [NCGC00380717]
[1]; [3]
  % Cytotox: 9.9%
[1]; [4]
  CC50: 0.35 µM
[2]; [5]
  EC50: 0.78 µM
[2]; [6]
  CPE % Efficacy: 67.0%

## Cc1nnc(-c2ccc(-c3ccc(C(=O)Nc4ccc(O)c(N5CCN(C)CC5)c4)cc3)c(C)c2)o1 [GMC 2-113, reference compound]
[1]; [7]
  % Cytotox: <30%
[2]; [8]
  CPE % Efficacy: 129.7%
[2]
  EC50: 10 µM

## CCCCCCCCCCCCCCCc1cccc(O)c1C(=O)O [Anacardic Acid]
[1]; [3]
  % Cytotox: 72.9%
[2]; [5]
  EC50: 3.98 µM
[2]; [6]
  CPE % Efficacy: 89.6%

## CC(C)(O)CNc1ncc(-c2ccnc(Nc3ccncc3)n2)c(CC2CC2)n1 [VPS34 Inhibitor 1, reference compound]
[1]; [7]
  % Cytotox: <30%
[2]; [8]
  CPE % Efficacy: 98.3%
[2]
  EC50: 1.4 µM

## CCC(C)C(=O)OC12C(OC(C)=O)C(C)C3(O)C(C=C(CO)CC4(O)C(=O)C(C)=CC43)C1C2(C)C (stereo not drawn) [NCGC00380715]
[1]; [3]
  % Cytotox: 0.0%
[2]; [5]
  EC50: 0.98 µM
[2]; [6]
  CPE % Efficacy: 45.0%

## COc1cc(C(=O)NC(=N)Nc2ccc(C)c(NC(=O)c3ccc(-c4ccccc4)cc3)c2)cc(OC)c1OC [MRT-83]
[1]; [3]
  % Cytotox: 37.9%
[1]; [4]
  CC50: 10 µM
[2]; [9]
  CPE % Efficacy: 56.4%
  EC50: 11.2 µM

## COc1cc(-n2cnc3cc(-c4ccc(Cl)cc4)sc3c2=O)ccc1OCCN1CCCC1 [GW 803430, reference compound]
[1]; [7]
  % Cytotox: <30%
[2]; [8]
  CPE % Efficacy: 93.3%
[2]
  EC50: 3.5 µM

## Cn1ncc2cc(-c3cnc(N)c(Cl)c3N3CCC4(CCNC4=O)CC3)ccc21 [CCT-251921]
[1]; [3]
  % Cytotox: 39.8%
[2]; [5]
  EC50: 2.82 µM
[2]; [6]
  CPE % Efficacy: 87.9%

## C(=N\Nc1nc(Nc2ccccc2)nc(N2CCOCC2)n1)/c1c[nH]c2ccccc12 [MLS000543798]
[1]; [3]
  % Cytotox: 33.6%
[1]; [4]
  CC50: 0.45 µM
[2]; [5]
  EC50: 0.11 µM
[2]; [6]
  CPE % Efficacy: 87.4%

## COc1cccc(-n2c(=O)[nH]c3cc(Cl)n(-c4ccc(-c5cccc(OC)c5O)cc4)c3c2=O)c1 [GSK621]
[1]; [3]
  % Cytotox: 58.4%
[2]; [5]
  EC50: 11.2 µM
[2]; [6]
  CPE % Efficacy: 77.9%

## C[C@@H]1O[C@@H](O[C@H]2[C@H](OC(=O)[C@]34CCC(C)(C)C[C@H]3C3=CCC5[C@@]6(C)CC[C@H](O[C@@H]7O[C@H](CO[C@@H]8OC[C@H](O)[C@H](O)[C@H]8O)[C@@H](O)[C@H](O)[C@H]7O)C(C)(C)C6CC[C@@]5(C)[C@]3(C)C[C@H]4O)OC[C@@H](O)[C@@H]2O)[C@H](O)[C@H](O[C@@H]2OC[C@](O)(CO)[C@H]2O)[C@H]1O[C@@H]1OC[C@H](O)[C@H](O[C@@H]2OC[C@@H](O)[C@H](O)[C@H]2O)[C@H]1O (stereo partly drawn) [NCGC00385743]
[1]; [3]
  % Cytotox: 67.2%
[1]; [4]
  CC50: 2.14 µM
[2]; [5]
  EC50: 0.95 µM
[2]; [6]
  CPE % Efficacy: 59.8%

## O=C(c1ccc(Nc2nccc(-c3cc4ccccc4s3)n2)cc1)N1CCC(N2CCCC2)CC1 [IKK-16]
[1]; [3]
  % Cytotox: 107.2%
[1]; [4]
  CC50: 10 µM
[2]; [5]
  EC50: 3.55 µM
[2]; [6]
  CPE % Efficacy: 110.2%

## CN1CCN(S(=O)(=O)c2ccc(-c3cnc(N)c(C(=O)Nc4cccnc4)n3)cc2)CC1 [AZD-2858]
[1]; [3]
  % Cytotox: 41.0%
[1]; [4]
  CC50: 12.6 µM
[2]; [6]
  CPE % Efficacy: 80.0%

## COc1cccc(NC[C@@H](O)Cn2c3ccc(Br)cc3c3cc(Br)ccc32)c1 [(R)-P7C3-Ome]
[1]; [3]
  % Cytotox: 32.2%
[1]; [4]
  CC50: 11.2 µM
[2]; [9]
  CPE % Efficacy: 63.4%
  EC50: 12.6 µM

## COc1ccc2c(c1)c(CCN(C)C)cn2S(=O)(=O)c1ccccc1.O=C(O)C(=O)O [MS 245 oxalate]
[1]; [3]
  % Cytotox: 20.5%
[1]; [4]
  CC50: 12.6 µM
[2]; [9]
  CPE % Efficacy: 76.1%
  EC50: 12.6 µM

## Cc1ccc(C(=O)Nc2cccc(C(F)(F)F)c2)cc1Nc1nc(-c2cccnc2)nc2c1cnn2C [NVP-BHG712]
[1]
  % Cytotox: 58.4%
  CC50: 3.98 µM
[2]; [5]
  EC50: 2.51 µM
[2]; [6]
  CPE % Efficacy: 123.5%

## Cl.Cl.Fc1ccc(-c2nc(C3CCNCC3)sc2-c2ccnc(NC3CC3)n2)cc1 [DBM 1285 dihydrochloride]
[1]; [3]
  % Cytotox: 61.3%
[1]; [4]
  CC50: 11.2 µM
[2]; [9]
  CPE % Efficacy: 56.1%
  EC50: 12.6 µM

## COc1ccc2c(c1)CN(C(=O)CCN1CCC(Cc3ccccc3)CC1)CCS2 [JTV519 Hemifumarate, reference compound]
[1]; [7]
  % Cytotox: <30%
[2]; [8]
  CPE % Efficacy: 85.7%
[2]
  EC50: 5.5 µM

## Cc1cc(CN)cc(C)c1NC(=O)c1ccc(-c2cc(Cl)ccc2Cl)o1 [CYM50358]
[1]; [3]
  % Cytotox: 52.7%
[2]; [5]
  EC50: 4.47 µM
[2]; [6]
  CPE % Efficacy: 34.9%

## Nc1ncnc2c1c(-c1cccc(OCc3ccccc3)c1)cn2C1CC(CN2CCCC2)C1 (stereo not drawn) [ADW-742]
[1]; [3]
  % Cytotox: 106.8%
[1]; [4]
  CC50: 12.6 µM
[2]; [5]
  EC50: 7.94 µM
[2]; [6]
  CPE % Efficacy: 55.7%

## O[C@@H]1[C@@H](O)[C@@H](O)CO[C@H]1O [alpha-L-Arabinopyranose, reference compound]
[1]; [7]
  % Cytotox: <30%
[2]; [8]
  CPE % Efficacy: 104.0%
[2]
  EC50: 2.4 µM

## CCCCNc1ncc2c(-c3ccc(F)cc3)nn(CC3CCC(N)CC3)c2n1 (stereo not drawn) [UNC-569]
[1]; [3]
  % Cytotox: 34.2%
[1]; [4]
  CC50: 4.92 µM
[2]; [5]
  EC50: 9.82 µM
[2]; [6]
  CPE % Efficacy: 46.0%

## CC1(C)CCC(C)(C)c2cc(C#Cc3ccc(C(=O)O)cc3)ccc21 [EC 23]
[1]; [3]
  % Cytotox: 74.0%
[1]; [4]
  CC50: 12.6 µM
[2]; [5]
  EC50: 3.98 µM
[2]; [6]
  CPE % Efficacy: 110.5%

## CCCCCCOc1ccc(C(=N)N(CCCC)CCCC)c2ccccc12.Cl [Bunamidine hydrochloride]
[1]; [3]
  % Cytotox: 109.2%
[1]; [4]
  CC50: 11.2 µM
[2]; [5]
  EC50: 4.47 µM
[2]; [6]
  CPE % Efficacy: 84.9%

## C/C1=C/CCC2=CC(OC2=O)C(C)(C)/C=C\C1=O (stereo not drawn) [Asteriscunolide D, reference compound]
[1]; [7]
  % Cytotox: <30%
[2]; [8]
  CPE % Efficacy: 93.3%
[2]
  EC50: 10 µM

## C/C=C(/C)C(=O)O[C@H]1[C@@H]2[C@H](C)C(=O)O[C@@H]2C[C@@H](C)[C@@H]2C=CC(=O)[C@]21C [Brevelin A]
[1]; [3]
  % Cytotox: 59.7%
[1]; [4]
  CC50: 11.2 µM
[2]; [5]
  EC50: 3.55 µM
[2]; [6]
  CPE % Efficacy: 61.5%

## CCCCOC(=O)c1ccnc2cc(C(OCCN3CCCCC3)c3ccccc3C)sc12 (stereo not drawn) [NCGC00481621]
[1]; [3]
  % Cytotox: 35.5%
[1]; [4]
  CC50: 12.6 µM
[2]; [5]
  EC50: 10 µM
[2]; [6]
  CPE % Efficacy: 88.9%

## CC(C)CCC[C@@H](C)[C@H]1CC[C@H]2[C@@H]3CC=C4C[C@@H](OC(=O)NCCN(C)C)CC[C@]4(C)[C@H]3CC[C@]12C.Cl
[1]; [3]
  % Cytotox: 37.0%
[1]; [4]
  CC50: 10 µM
[2]; [5]
  EC50: 11.2 µM
[2]; [6]
  CPE % Efficacy: 40.5%

## C[C@@H]1O[C@@H](O[C@@H]2[C@@H](O)[C@H](O[C@@H]3[C@@H](O)[C@@H](O)[C@H](O[C@H]4[C@H](OC(=O)[C@]56CCC(C)(C)C[C@H]5C5=CCC7[C@@]8(C)C[C@H](O)[C@H](O[C@@H]9O[C@@H](C)[C@H](O)[C@@H](O)[C@H]9O)[C@@](C)(CO)C8CC[C@@]7(C)[C@]5(C)C[C@H]6O)O[C@H](C)[C@H](O)[C@@H]4O)O[C@H]3C)OC[C@H]2O)[C@H](O)[C@H](O)[C@H]1O (stereo partly drawn) [NCGC00385241]
[1]; [3]
  % Cytotox: 98.7%
[1]; [4]
  CC50: 1.91 µM
[2]; [5]
  EC50: 0.85 µM
[2]; [6]
  CPE % Efficacy: 123.9%

## CCN(CC)Cc1cccc(/C=C/c2nc3ccc(F)cc3c(=O)n2-c2ccccc2Cl)n1.Cl [CP 465022 hydrochloride]
[1]; [3]
  % Cytotox: 47.9%
[1]; [4]
  CC50: 12.6 µM
[2]; [5]
  EC50: 10 µM
[2]; [6]
  CPE % Efficacy: 77.3%

## CCC(C)CNCC(=O)N1CCc2sccc2C1COc1cccc(C)c1 (stereo not drawn) [RU-SKI 43]
[1]; [3]
  % Cytotox: 21.3%
[2]; [9]
  CPE % Efficacy: 72.7%
  EC50: 14.1 µM
